These results are taken from US10227347B2, “Purinyl-N-hydroxyl pyrimidine formamide derivative, preparation methods and uses thereof” (Guizhou Bailing Group Pharmaceutical CO., LTD., priority 2015, dated 2019).

In one assay the target is T1, PI3Kβ (Homo sapiens, UniProt P42338).
T1 construct: purchased Millipore 14-603-K
As to the kind of experiment: PI3Kβ activity inhibition (ADP-Glo). It counts as biochemical. The method in brief: (§1)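 Kinase activity measured by ADP-Glo luminescence with PIP2 and ATP substrates in 50 mM HEPES pH 7.5, 3 mM MgCl2, 1 mM EGTA, 100 mM NaCl, 0.03% CHAPS, 2 mM DTT. Reaction ran 1 h at ambient temperature. IC50 was fitted from inhibition ratio versus compound concentration.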

Another assay deals with T2, PI3Kδ (Homo sapiens, UniProt O00329).
T2 construct: purchased Millipore 14-604-K
T2 sequence (O00329 whole entry): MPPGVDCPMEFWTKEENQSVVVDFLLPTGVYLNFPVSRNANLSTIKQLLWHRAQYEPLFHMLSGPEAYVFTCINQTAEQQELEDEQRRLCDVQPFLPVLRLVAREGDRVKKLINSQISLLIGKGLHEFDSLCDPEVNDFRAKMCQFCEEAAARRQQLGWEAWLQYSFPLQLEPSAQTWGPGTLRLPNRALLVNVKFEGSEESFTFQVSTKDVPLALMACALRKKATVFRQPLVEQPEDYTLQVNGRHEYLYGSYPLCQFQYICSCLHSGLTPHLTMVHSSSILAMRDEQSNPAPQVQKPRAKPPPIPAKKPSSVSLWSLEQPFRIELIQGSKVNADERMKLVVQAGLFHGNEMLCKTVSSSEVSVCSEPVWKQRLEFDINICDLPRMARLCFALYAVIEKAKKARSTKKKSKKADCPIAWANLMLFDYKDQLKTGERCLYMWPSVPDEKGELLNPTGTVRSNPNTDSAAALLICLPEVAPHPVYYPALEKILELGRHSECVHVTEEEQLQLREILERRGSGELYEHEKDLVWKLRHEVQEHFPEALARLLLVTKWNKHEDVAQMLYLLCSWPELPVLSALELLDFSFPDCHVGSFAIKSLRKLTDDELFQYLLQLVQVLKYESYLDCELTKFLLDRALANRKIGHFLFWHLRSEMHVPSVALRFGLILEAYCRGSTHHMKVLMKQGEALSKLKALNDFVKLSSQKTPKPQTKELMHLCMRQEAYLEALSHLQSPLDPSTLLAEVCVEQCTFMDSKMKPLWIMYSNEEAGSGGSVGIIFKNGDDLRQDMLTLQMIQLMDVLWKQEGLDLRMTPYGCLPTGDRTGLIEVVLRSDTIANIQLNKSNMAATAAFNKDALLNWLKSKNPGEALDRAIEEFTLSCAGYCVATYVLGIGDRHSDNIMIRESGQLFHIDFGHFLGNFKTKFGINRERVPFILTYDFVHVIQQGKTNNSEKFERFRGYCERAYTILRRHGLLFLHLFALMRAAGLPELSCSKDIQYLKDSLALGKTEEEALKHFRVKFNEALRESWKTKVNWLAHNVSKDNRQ
T2 sequence (P27986 whole entry partner): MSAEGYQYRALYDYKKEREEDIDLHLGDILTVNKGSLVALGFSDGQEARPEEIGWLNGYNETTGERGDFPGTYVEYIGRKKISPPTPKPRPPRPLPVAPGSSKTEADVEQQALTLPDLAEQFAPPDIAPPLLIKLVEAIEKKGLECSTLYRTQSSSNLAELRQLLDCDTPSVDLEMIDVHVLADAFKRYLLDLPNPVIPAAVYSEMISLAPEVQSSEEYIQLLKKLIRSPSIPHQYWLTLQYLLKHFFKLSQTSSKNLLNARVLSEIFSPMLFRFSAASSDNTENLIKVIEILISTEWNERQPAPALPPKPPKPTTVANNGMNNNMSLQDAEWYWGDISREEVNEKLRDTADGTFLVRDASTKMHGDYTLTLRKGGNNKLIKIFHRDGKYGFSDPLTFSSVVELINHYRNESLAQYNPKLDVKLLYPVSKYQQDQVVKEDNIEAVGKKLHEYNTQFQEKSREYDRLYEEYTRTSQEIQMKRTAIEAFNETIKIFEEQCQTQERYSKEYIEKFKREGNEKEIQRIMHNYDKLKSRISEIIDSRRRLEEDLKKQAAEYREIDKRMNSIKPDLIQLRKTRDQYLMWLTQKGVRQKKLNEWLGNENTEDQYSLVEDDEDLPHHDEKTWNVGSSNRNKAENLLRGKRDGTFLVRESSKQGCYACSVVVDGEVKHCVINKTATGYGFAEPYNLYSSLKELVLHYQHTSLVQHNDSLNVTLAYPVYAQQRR
Briefly: PI3Kδ activity inhibition (Kinase-Glo). It counts as biochemical. The essentials: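 Kinase-Glo luminescence read-out of remaining ATP after PI3K reaction with PIP2 and ATP substrates in 50 mM HEPES pH 7.5, 3 mM MgCl2, 1 mM EGTA, 100 mM NaCl, 0.03% CHAPS, 2 mM DTT. Incubated at ambient temperature, 1 h for PI3Kα, 2 h for PI3Kδ. IC50 from four-parameter fit of % inhibition versus concentration.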

In the next assay the target is T3, PI3Kγ (Homo sapiens, UniProt P48736).
T3 construct: purchased Invitrogen PR8641C
T3 sequence (P48736 whole entry): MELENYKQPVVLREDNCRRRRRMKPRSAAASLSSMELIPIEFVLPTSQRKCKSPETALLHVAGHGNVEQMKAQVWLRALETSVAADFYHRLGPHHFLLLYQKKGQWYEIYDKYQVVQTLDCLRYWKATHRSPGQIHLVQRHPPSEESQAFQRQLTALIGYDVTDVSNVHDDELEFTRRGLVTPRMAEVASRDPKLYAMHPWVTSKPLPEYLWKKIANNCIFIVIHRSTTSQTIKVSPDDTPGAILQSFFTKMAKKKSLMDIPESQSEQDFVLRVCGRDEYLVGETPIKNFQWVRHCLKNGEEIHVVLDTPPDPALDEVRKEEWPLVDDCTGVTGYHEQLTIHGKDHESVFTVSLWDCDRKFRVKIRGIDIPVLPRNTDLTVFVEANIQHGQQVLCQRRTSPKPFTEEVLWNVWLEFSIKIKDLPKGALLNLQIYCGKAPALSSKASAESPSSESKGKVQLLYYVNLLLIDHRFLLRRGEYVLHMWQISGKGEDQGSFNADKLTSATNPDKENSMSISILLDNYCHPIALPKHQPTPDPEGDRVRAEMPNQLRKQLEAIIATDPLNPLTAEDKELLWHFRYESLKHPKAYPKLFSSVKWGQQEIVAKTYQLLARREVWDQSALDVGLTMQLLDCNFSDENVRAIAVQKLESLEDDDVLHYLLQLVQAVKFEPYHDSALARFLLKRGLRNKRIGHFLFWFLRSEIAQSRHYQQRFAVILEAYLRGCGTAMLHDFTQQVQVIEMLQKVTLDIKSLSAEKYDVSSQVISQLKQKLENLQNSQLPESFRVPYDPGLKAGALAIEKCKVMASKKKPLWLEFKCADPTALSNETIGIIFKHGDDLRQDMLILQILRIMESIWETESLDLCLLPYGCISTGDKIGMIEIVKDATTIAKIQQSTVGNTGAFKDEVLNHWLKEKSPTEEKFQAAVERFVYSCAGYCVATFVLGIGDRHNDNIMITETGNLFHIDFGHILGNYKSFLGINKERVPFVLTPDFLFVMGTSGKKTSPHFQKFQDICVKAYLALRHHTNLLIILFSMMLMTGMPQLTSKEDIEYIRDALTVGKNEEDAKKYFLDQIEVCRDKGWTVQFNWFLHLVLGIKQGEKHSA
Briefly: PI3Kγ activity inhibition (ADP-Glo). It counts as biochemical. The essentials: as §1

The next assay deals with T4, HDAC9 (Homo sapiens, UniProt Q9UKV0).
T4 construct: purchased BPS Bioscience 50009
T4 sequence (Q9UKV0 1-1066 isoform Q9UKV0-5): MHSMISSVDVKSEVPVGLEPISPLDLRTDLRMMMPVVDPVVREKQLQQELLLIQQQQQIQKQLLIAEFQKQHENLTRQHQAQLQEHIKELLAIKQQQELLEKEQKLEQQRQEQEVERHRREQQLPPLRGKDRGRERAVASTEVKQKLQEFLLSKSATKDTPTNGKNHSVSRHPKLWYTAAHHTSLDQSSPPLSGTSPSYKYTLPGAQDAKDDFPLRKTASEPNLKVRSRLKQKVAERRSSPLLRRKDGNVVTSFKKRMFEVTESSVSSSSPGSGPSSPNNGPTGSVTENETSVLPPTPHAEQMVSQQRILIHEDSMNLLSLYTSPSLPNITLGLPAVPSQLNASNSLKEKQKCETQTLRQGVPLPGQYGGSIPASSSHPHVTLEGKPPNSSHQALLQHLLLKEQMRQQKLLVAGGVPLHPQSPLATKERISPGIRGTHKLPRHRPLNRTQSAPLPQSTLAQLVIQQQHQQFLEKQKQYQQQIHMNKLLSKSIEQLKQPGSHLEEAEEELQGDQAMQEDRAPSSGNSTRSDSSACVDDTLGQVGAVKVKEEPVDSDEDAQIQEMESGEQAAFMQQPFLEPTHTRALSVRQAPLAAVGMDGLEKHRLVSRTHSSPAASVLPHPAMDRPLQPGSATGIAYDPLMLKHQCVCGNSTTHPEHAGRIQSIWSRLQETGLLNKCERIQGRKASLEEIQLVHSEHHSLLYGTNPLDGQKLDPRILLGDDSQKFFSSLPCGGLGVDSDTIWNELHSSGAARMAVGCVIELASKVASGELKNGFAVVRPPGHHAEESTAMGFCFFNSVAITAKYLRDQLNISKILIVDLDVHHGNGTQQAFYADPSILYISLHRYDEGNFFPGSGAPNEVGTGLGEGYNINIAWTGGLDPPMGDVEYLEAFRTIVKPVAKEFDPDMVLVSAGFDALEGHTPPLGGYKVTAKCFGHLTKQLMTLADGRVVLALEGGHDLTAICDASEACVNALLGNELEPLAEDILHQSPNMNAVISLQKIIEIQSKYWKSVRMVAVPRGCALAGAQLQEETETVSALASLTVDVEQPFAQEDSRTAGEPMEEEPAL
As to the kind of experiment: HDAC9 enzyme inhibition (Lys-Ac-AMC). It counts as biochemical. The following applies: Table 4, graded. The protocol:
(§2) Determining the inhibition capability of HDAC through the substrate method of fluorophore coupled acetylized peptide fragment (Lys-Ac-AMC). HDAC2-11 proteins of subtypes are purchased from BPS Bioscience Company with the Art. […] The reaction buffer system is a modified Tris buffer (pH7.0). The small molecule compounds are prepared and dissolved with 100% DMSO. […] Adding the compound into the reaction wells of the 384 well plate at the designed concentration, then adding 15 μL HDAC enzyme solution into the reaction wells (adding 15 μL blank buffer into the control well 0) for incubation under ambient temperature for 15 min; then adding 10 μL substrate solution to start reaction.
(§3) Analyzing the result data with the software GraphPad Prism and calculating the value of IC50 as per the formula: Y=background data+(top data−background data)/(1+10^((Log IC50−X)*rate of curve)). Where, Y refers to the inhibition ratio (%) and X refers to the compound concentration.

In the next assay the target is T5, HDAC10 (Homo sapiens, UniProt Q969S8).
T5 construct: purchased BPS Bioscience 50060
T5 sequence (Q969S8 1-669): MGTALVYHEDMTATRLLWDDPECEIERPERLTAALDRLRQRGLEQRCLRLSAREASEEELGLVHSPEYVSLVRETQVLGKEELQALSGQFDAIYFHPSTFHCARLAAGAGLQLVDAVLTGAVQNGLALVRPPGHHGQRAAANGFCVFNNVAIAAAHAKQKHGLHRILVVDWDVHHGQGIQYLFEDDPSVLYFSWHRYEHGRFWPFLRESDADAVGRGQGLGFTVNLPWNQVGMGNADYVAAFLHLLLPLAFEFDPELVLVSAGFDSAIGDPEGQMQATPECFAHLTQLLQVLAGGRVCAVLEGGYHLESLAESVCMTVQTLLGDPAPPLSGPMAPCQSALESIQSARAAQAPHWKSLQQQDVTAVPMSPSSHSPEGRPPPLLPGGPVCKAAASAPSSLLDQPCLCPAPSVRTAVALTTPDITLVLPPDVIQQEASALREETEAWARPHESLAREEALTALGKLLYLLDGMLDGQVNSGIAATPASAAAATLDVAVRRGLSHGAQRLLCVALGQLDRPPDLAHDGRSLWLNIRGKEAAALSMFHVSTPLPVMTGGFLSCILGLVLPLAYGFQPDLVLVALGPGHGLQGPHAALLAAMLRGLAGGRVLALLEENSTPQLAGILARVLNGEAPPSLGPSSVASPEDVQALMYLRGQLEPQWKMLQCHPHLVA
As to the kind of experiment: HDAC10 enzyme inhibition (Lys-Ac-AMC). The following applies: Table 4, graded. It counts as biochemical. The procedure: as §2, §3

Assay [1] deals with OCI-LY1 cells (B-cell lymphoma). Briefly: Proliferation inhibition, OCI-LY1 (cck-8). It counts as cell-based. The following applies: Homo sapiens, 96 h incubation. The source says:
(§4) Calculating the value of IC50 as per the formula: Y=background data+(top data−background data)/(1+10^((Log IC50−X)*rate of curve)). Where, Y refers to the inhibition ratio (%) and X refers to the compound concentration.

The subject of assay [2] is Ramos cells (B-cell lymphoma). Briefly: Proliferation inhibition, Ramos (cck-8). It counts as cell-based. The following applies: Homo sapiens, 96 h incubation.
Excerpt: as §4

A value given as a limit tells only on which side of the number the result lay.

T1 sequence (P42338 whole entry, species assumed): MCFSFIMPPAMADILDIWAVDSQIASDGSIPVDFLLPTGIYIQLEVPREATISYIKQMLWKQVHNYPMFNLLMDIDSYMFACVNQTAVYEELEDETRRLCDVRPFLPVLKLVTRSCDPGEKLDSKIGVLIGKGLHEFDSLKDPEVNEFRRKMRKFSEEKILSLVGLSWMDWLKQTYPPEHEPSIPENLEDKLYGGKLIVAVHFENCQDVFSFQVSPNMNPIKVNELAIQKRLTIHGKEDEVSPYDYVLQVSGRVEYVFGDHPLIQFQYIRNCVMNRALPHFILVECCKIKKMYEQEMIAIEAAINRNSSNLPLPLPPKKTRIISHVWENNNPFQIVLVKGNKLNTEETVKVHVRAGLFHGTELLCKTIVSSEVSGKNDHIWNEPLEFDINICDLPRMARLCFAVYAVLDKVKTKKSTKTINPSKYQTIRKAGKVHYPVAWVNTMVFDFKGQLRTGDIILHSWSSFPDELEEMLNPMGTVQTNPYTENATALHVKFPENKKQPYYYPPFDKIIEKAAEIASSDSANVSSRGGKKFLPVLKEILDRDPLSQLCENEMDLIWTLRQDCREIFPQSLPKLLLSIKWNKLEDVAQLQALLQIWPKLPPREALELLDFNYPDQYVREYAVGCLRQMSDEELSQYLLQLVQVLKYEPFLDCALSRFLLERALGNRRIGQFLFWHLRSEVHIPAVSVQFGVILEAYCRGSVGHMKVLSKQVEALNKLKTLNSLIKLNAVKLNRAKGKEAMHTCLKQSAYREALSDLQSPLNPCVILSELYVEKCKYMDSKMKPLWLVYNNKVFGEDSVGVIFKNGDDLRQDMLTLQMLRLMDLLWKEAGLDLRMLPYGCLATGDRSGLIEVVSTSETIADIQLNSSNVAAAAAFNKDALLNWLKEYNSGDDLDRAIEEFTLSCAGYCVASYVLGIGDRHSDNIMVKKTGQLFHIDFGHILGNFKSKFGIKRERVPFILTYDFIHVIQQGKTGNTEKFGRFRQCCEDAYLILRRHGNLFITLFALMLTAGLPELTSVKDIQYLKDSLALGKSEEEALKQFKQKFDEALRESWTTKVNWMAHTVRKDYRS
T1 sequence (P27986 whole entry partner, species assumed): as the sequence (P27986 whole entry partner) above

By IC50 is commonly meant the concentration needed to halve the response being measured. For `COc1ccc(-c2nc(N3CCOCC3)c3nc(CN(C)c4ncc(C(=O)NO)cn4)n(C)c3n2)cn1` [CLJ-1, 2-(((2-(6-methoxypyridine-3-yl)-9-methyl-6-morpholine-9H-purine-8-yl))methyl(methyl)amino)-N-hydroxyl pyrimidine-5-formamide], the IC50 on PI3Kβ (Table 1, graded) lay within 1000 to 10000 nM; on PI3Kβ (Table 4, graded), 1000 to 10000 nM; against PI3Kδ (Table 1, graded), 100 to 1000 nM; at PI3Kδ (Table 4, graded) it was 100 to 1000 nM; on PI3Kγ (Table 1, graded), 100 to 1000 nM; against PI3Kγ (Table 4, graded), 100 to 1000 nM. The IC50 against HDAC9 was in the range of 1000 to 10000 nM; at HDAC10 it was 1 to 100 nM; in assay [1], 10 to 100 nM; in assay [2], 0.1 to 1 nM.

With `CN(Cc1nc2c(N3CCOCC3)nc(-c3cnc(N)nc3)nc2n1C)c1ncc(C(=O)NO)cn1` [CLJ-11, 2-(((2-(2-aminopyrimidine-5-yl)-9-methyl-6-morpholine-9H-purine-8-yl))methyl(methyl)amino)-N-hydroxyl pyrimidine-5-formamide], the IC50 lay within 100 to 1000 nM against PI3Kβ (Table 1, graded); 1 to 100 nM against PI3Kβ (Table 4, graded); 100 to 1000 nM against PI3Kδ (Table 1, graded); 1 to 100 nM on PI3Kδ (Table 4, graded); 100 to 1000 nM at PI3Kγ (Table 1, graded); 1 to 100 nM against PI3Kγ (Table 4, graded). The IC50 was in the range of 1000 to 10000 nM against HDAC9, 1 to 100 nM against HDAC10, 100 to 1000 nM in assay [1] and 10 to 100 nM in assay [2].

`COc1ccc(-c2nc(N3CCOCC3)c3nc(CN(C)c4ncc(C(=O)NO)cn4)n(C)c3n2)cc1` [CLJ-29, 2-(((2-(4-methoxyphenyl)-9-methyl-6-morpholine-9H-purine-8-yl))methyl(methyl)amino)-N-hydroxyl pyrimidine-5-formamide]: the IC50 against PI3Kβ (Table 4, graded) is over 10000 nM; against PI3Kδ (Table 4, graded), over 10000 nM; at PI3Kγ (Table 4, graded) it was over 10000 nM; against HDAC9, 1000 to 10000 nM; on HDAC10, 1 to 100 nM; in assay [1], 1 to 10 nM. For the same compound, the IC50 in assay [2] is 1 to 10 nM.

In the case of `CN(Cc1nc2c(N3CCOCC3)nc(-c3ccc(N)cc3)nc2n1C)c1ncc(C(=O)NO)cn1` [CLJ-44], the IC50 on PI3Kβ (Table 4, graded) is over 10000 nM; on PI3Kδ (Table 4, graded), over 10000 nM; against PI3Kγ (Table 4, graded), over 10000 nM; against HDAC9, 1000 to 10000 nM; on HDAC10, 1 to 100 nM; in assay [1], 10 to 100 nM. The same compound had an IC50 in assay [2] of 1 to 10 nM.

With `Cc1[nH]c2ccccc2c1CCNCc1ccc(/C=C/C(=O)NO)cc1` [LBH589, panobinostat, reference compound], the IC50 is over 10000 nM against PI3Kβ (Table 4, graded); over 10000 nM against PI3Kδ (Table 4, graded); over 10000 nM on PI3Kγ (Table 4, graded); 10 to 100 nM in assay [1]; 0.1 to 1 nM in assay [2].
